ChEMBL document CHEMBL1201862, “PubChem BioAssay data set” (2004)
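Assay format: 96-well plates, 48-hour exposure. At the GI50, growth is halved.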 Calls of active or inactive are those of the source. Cut-off read from the data, not from the text of the source: active = GI50 up to about 1.1 µM and inactive = higher.

Assays:
Experiment in all cases: NCI tumour cell line growth inhibition, 48 h
786-0 = tested on: 786-0
A498 = tested on: A498
A549 = tested on: A549
ACHN = tested on: ACHN
CAKI-1 = tested on: CAKI-1
CCRF-CEM = tested on: CCRF-CEM
COLO 205 = tested on: COLO 205
DLD-1 = tested on: DLD-1
DMS-273 = tested on: DMS-273
EKVX = tested on: EKVX
HCC 2998 = tested on: HCC 2998
HCT-15 = tested on: HCT-15
HL-60 = tested on: HL-60
HOP-18 = tested on: HOP-18
HOP-62 = tested on: HOP-62
HT-29 = tested on: HT-29
IGROV-1 = tested on: IGROV-1
K562 = tested on: K562
KM12 = tested on: KM12
LOX IMVI = tested on: LOX IMVI
LXFL 529 = tested on: LXFL 529
M14 = tested on: M14
M19-MEL = tested on: M19-MEL
MOLT-4 = tested on: MOLT-4
Malme-3M = tested on: Malme-3M
NCI-H226 = tested on: NCI-H226
NCI-H23 = tested on: NCI-H23
NCI-H522 = tested on: NCI-H522
OVCAR-3 = tested on: OVCAR-3
OVCAR-4 = tested on: OVCAR-4
OVCAR-5 = tested on: OVCAR-5
OVCAR-8 = tested on: OVCAR-8
RPMI-8226 = tested on: RPMI-8226
RXF 393 = tested on: RXF 393
SF-268 = tested on: SF-268
SF-295 = tested on: SF-295
SF-539 = tested on: SF-539
SK-MEL-28 = tested on: SK-MEL-28
SK-MEL-2 = tested on: SK-MEL-2
SK-MEL-5 = tested on: SK-MEL-5
SK-OV-3 = tested on: SK-OV-3
SN12C = tested on: SN12C
SNB-19 = tested on: SNB-19
SNB-75 = tested on: SNB-75
SNB-78 = tested on: SNB-78
SW-620 = tested on: SW-620
TK-10 = tested on: TK-10
U-251 = tested on: U-251
UACC-257 = tested on: UACC-257
UACC-62 = tested on: UACC-62
UO-31 = tested on: UO-31
XF498 = tested on: XF498
DMS-114 = tested on: DMS-114
HCT-116 = tested on: HCT-116
HOP-92 = tested on: HOP-92
KM-20L2 = tested on: KM-20L2
NCI-H460 = tested on: NCI-H460
SR = tested on: SR

Measured: GI50

O=c1sc(-c2nc3ccccc3[nH]2)c(/N=C/c2ccccc2)n1-c1ccccc1
74.1 µM: HCT-15
inactive: 786-0 42.9 µM | A498 > 100 µM | A549 57.4 µM | ACHN 65.2 µM | CAKI-1 > 100 µM | CCRF-CEM > 100 µM | COLO 205 56.4 µM | DLD-1 > 100 µM | DMS-273 28.4 µM | EKVX > 100 µM | HCC 2998 > 100 µM | HL-60 > 100 µM | HOP-18 67 µM | HOP-62 27.9 µM | HT-29 > 100 µM | IGROV-1 97.7 µM | K562 75 µM | KM12 73.3 µM | LOX IMVI 40.3 µM | LXFL 529 30.3 µM | M14 48.9 µM | M19-MEL 94.2 µM | MOLT-4 > 100 µM | Malme-3M 92.7 µM | NCI-H226 15.4 µM | NCI-H23 > 100 µM | NCI-H522 90.2 µM | OVCAR-3 25.6 µM | OVCAR-4 6.12 µM | OVCAR-5 > 100 µM | OVCAR-8 35.6 µM | RPMI-8226 > 100 µM | RXF 393 62.4 µM | SF-268 91.4 µM | SF-295 40.9 µM | SF-539 26.3 µM | SK-MEL-28 > 100 µM | SK-MEL-2 63 µM | SK-MEL-5 29.9 µM | SK-OV-3 42.6 µM | SN12C 73.3 µM | SNB-19 53.7 µM | SNB-75 21.6 µM | SNB-78 35.5 µM | SW-620 > 100 µM | TK-10 62.8 µM | U-251 68.7 µM | UACC-257 > 100 µM | UACC-62 52.5 µM | UO-31 > 100 µM | XF498 31.2 µM

CCCCc1c2c(nc3c1CCCC3O)/C(=C/c1ccccc1)CCC2 (stereo not drawn)
inactive: 786-0 22.3 µM | A498 54.1 µM | A549 49.5 µM | ACHN 34.8 µM | CCRF-CEM 15.9 µM | COLO 205 17.9 µM | DMS-114 22.9 µM | DMS-273 20.7 µM | EKVX 29.6 µM | HCC 2998 9.84 µM | HCT-116 36.6 µM | HL-60 17.3 µM | HOP-18 24.4 µM | HOP-62 36.5 µM | HOP-92 38.7 µM | HT-29 22.1 µM | IGROV-1 45.8 µM | K562 11.4 µM | KM-20L2 35.2 µM | KM12 18.7 µM | LOX IMVI 19.7 µM | LXFL 529 34.1 µM | M14 23.1 µM | M19-MEL 23.1 µM | MOLT-4 11.6 µM | Malme-3M 20.2 µM | NCI-H226 26.1 µM | NCI-H23 27.3 µM | NCI-H460 17.1 µM | NCI-H522 21.7 µM | OVCAR-3 18.7 µM | OVCAR-4 63.7 µM | OVCAR-5 32.8 µM | OVCAR-8 32 µM | RPMI-8226 16.8 µM | RXF 393 39.9 µM | SF-268 31.3 µM | SF-295 42.3 µM | SF-539 28.1 µM | SK-MEL-28 33.5 µM | SK-MEL-2 24.8 µM | SK-MEL-5 21.7 µM | SK-OV-3 38.5 µM | SN12C 23.2 µM | SNB-19 43.1 µM | SNB-75 35.3 µM | SNB-78 56 µM | SR 14 µM | SW-620 26.2 µM | TK-10 26.9 µM | U-251 28 µM | UACC-257 30 µM | UACC-62 33.8 µM | UO-31 42.9 µM | XF498 13.2 µM
16 µM: HCT-15
